What was measured:
nitric oxide (NO) = assay: Inhibition of NO production (nitrite, Griess reagent) in LPS-stimulated Raw 264.7 macrophage cells; assay type: cell-based, murine; settings: for NO: 1 μg/ml LPS, 24 hours; for inhibition at 0.03 µg/mL / inhibition at 0.3 µg/mL / inhibition at 3 µg/mL: read-out: Inhibition rate (%) of NO production; for IC50: LPS-stimulated Raw 264.7 cells
Method: (§1) To investigate whether kaurane diterpene compounds obtained in Example 1 can inhibit the production of nitric oxide (NO) which induces apoptosis of the immune and neuron cells, the present inventors measured the amount of nitrite (NO2) accumulated in the culture medium of LPS-stimulated murine macrophage cells, which were treated with four kaurane diterpene compounds, kamebanin, kamebacetal A, kamebakaurin, or exisanin A.
In detail, Raw 264.7 murine macrophage cells (ATCC TIB-71) in DMEM medium were seeded to 96-well plate at a cell density of 1×10^5 cells/well and incubated for 3 hours at 37° C., 5% CO2 incubator. To induce NO synthesis in the macrophage cell, 1 μg/ml of LPS and 3 μg/ml, 0.3 μg/ml, and 0.03 μg/ml of kaurane diterpene compounds of the present invention were added to the medium and the plate was incubated for 24 hours. The amount of NO2, the final oxidation product of NO induced by the LPS in the medium was measured as followed. After collecting and centrifuging incubated medium, 100 μl of Griess reagent was added into 100 μl of each culture medium. Then, the medium was incubated for ten minutes at room temperature and absorbance at 550 nm wavelength was measured. Griess reagent was prepared by mixing a solution, wherein 1% sulfanilamide was dissolved in 5% phosphoric acid, and a solution of 0.1% naphyhylethylenediamine-HCl by a 1:1 ratio. To measure the amount of standard NO synthesis, NaNO2 was serially diluted and the absorbance was measured after reacting it with Griess reagent. From this, the standard curve for the amount of NO production was obtained. The amount of NO production in the culture medium treated with each compound was estimated using standard curve for NO determination.

prostaglandin E2 = assay: Inhibition of prostaglandin E2 production in LPS-stimulated Raw 264.7 cells (enzyme immunometric assay); assay type: cell-based, murine; settings: for PGE2: 1 μg/ml LPS, 16 hours; for inhibition at 0.03 µg/mL / inhibition at 0.3 µg/mL / inhibition at 3 µg/mL / IC50: Mus musculus, RAW264.7; for inhibition at 0.03 µg/mL / inhibition at 0.3 µg/mL / inhibition at 3 µg/mL: read-out: Inhibition rate (%) of prostaglandin E2 production; for IC50: LPS-stimulated Raw 264.7 cells
Method: as §1, with “prostaglandin,” for “nitric oxide (NO)”, “inflammatory reaction,” for “apoptosis of the immune and neuron cells,”, “prostaglandin E2” for “nitrite (NO2)”
In detail, Raw 264.7 cells in DMEM medium were seeded to a 96-well plate at a cell density of 1×10^5 cells/well and were incubated for 18 hours. Cyclooxygenase-1, the constitutive rate-determining enzyme of the prostaglandin synthesis was inactivated by incubating for 3 hrs with 500 μM of aspirin and each well was washed two times with PBS (phosphate-buffered saline). To each well were added 1 μg/ml of LPS and 3 μg/ml, 0.3 μg/ml, and 0.03 μg/ml concentrations of kaurane diterpene compounds of the present invention and was incubated for 16 hours. After collecting supernatant by centrifugation, the amount of prostaglandin in the culture medium was quantified by enzyme immunometric assay.

TNF-α = assay: Inhibition of TNF-α production in LPS-stimulated Raw 264.7 cells (enzyme immunometric assay); assay type: cell-based, murine; settings: for TNF-α: 1 μg/ml LPS, 16 hours; for inhibition at 0.03 µg/mL / inhibition at 0.3 µg/mL / inhibition at 3 µg/mL / IC50: Mus musculus, RAW264.7; for inhibition at 0.03 µg/mL / inhibition at 0.3 µg/mL / inhibition at 3 µg/mL: read-out: Inhibition rate (%) of TNF-α production; for IC50: LPS-stimulated Raw 264.7 cells
Method: To investigate whether kaurane diterpene compounds obtained in Example 1 can inhibit effectively the production of tumor necrosis factor-α (TNF-α), one of the inflammatory mediator, which confers cytotoxic effect and induces the production of prostaglandin and cytokines, the present inventors measured the amount of TNF-α accumulated in the culture medium of LPS-stimulated murine macrophage cells, which were treated with four kaurane diterpene compounds, kamebanin, kamebacetal A, kamebakaurin, or exisanin A.
In detail, Raw 264.7 cells in DMEM medium were seeded to a 96-well plate at a cell density of 1×10^5 cells/well and were incubated for 3 hours at 37° C. in a 5% CO2 incubator. To each well were added 1 μg/ml of LPS and 3 μg/ml, 0.3 μg/ml, and 0.03 μg/ml concentrations of kaurane diterpene compounds of the present invention and was incubated for 16 hours. After collecting supernatant by centrifugation, the amount of TNF-α in the culture medium was quantified by enzyme immunometric assay.

NF-κB = NF-κB activation, SEAP reporter in LPS-stimulated RAW-NF-AP cells; assay type: cell-based, murine; settings: for inhibition at 0.03 µg/mL / inhibition at 0.3 µg/mL / inhibition at 3 µg/mL / IC50: Mus musculus; for inhibition at 0.03 µg/mL: 0.03 μg/ml compound; for inhibition at 0.03 µg/mL / inhibition at 0.3 µg/mL / inhibition at 3 µg/mL: 1 μg/ml LPS, 16 hours; for inhibition at 0.3 µg/mL: 0.3 μg/ml compound; for inhibition at 3 µg/mL: 3 μg/ml compound; for IC50: RAW-NF-AP cells, LPS
Method: RAW-NF-AP cells, which can be used effectively to detect the NF-κB dependent expression of reporter gene, (Korean Patent Application No. 1999-0006025), were seeded to a 96-well plate at a cell density of 1×10^5 cell/well and were incubated for 3 hours at 37° C. in a 5% CO2 incubator. Thereafter, 1 μg/ml concentration of LPS and 0.03 μg/ml, 0.3 μg/ml, and 3 μg/ml concentrations of kaurane diterpene compounds of the present invention were added to each well and was incubated for 16 hours. After collecting supernatant by centrifugation, the amount of secreted alkaline phosphatase (SEAP) in the culture medium of which expression is regulated by the activation of NF-κB was quantified.

adjuvant arthritis model = assay: Adjuvant arthritis model, paw volume; assay type: in vivo, Sprague-Dawley rat; settings: day 16-22, paw volume on 23rd day
Method: Finding the inhibitory effect of kaurane diterpene compounds on the production of NO, prostaglandin, and TNF, and on the activation of NF-κB in the murine macrophage cells stimulated by LPS, the present inventors investigated the pharmacological efficacy of kaurane diterpene compounds with a adjuvant arthritis model according to the method of Futaki et al. (General Pharmacology, 1993, 24, 105-110). To prepare animal model of the arthritis, 0.05 ml of 0.1% Mycobacterium butyricum suspended in Freud adjuvant (Sigma, USA) was injected intradermally to the left hind paw of the male Sprague-Dawley rat of 180 g weight. On the fifteenth day after injection, the volume of the right paw of the rats was measured using plethysmometer (Ugo-Basile, Italy), and only the rats having arthritis on the right leg were selected. Thereafter, the selected rats were divided into four groups, six rats per each group. Four kinds of kaurane diterpene compounds of the present invention were administered orally to each groups everyday from the sixteenth day to twenty-second day with doses of 3 mg/kg/day, 10 mg/kg/day, and 20 mg/kg/day in the form of the suspended solution with 0.1% methylcellulose. The inhibition rate of arthritis was calculated by comparing the volume of the paw with that of the control on the 23rd day.

[1] = Mus musculus, RAW264.7, 0.03 μg/ml compound
[2] = Mus musculus, RAW264.7, 0.3 μg/ml compound
[3] = Mus musculus, RAW264.7, 3 μg/ml compound

Structure (SMILES)	NO (nitric oxide (NO); 0.03 μg/ml compound) [µM]	NO (nitric oxide (NO); 0.3 μg/ml compound) [µM]	NO (nitric oxide (NO); 3 μg/ml compound) [µM]	inhibition at 0.03 µg/mL (nitric oxide (NO); [1]) [%]	inhibition at 0.3 µg/mL (nitric oxide (NO); [2]) [%]	inhibition at 3 µg/mL (nitric oxide (NO); [3]) [%]	IC50 (nitric oxide (NO); Mus musculus, RAW264.7) [µM]	PGE2 (prostaglandin E2; 0.03 μg/ml compound) [ng/mL]	PGE2 (prostaglandin E2; 0.3 μg/ml compound) [ng/mL]	PGE2 (prostaglandin E2; 3 μg/ml compound) [ng/mL]	inhibition at 0.03 µg/mL (prostaglandin E2; 0.03 μg/ml compound) [%]	inhibition at 0.3 µg/mL (prostaglandin E2; 0.3 μg/ml compound) [%]	inhibition at 3 µg/mL (prostaglandin E2; 3 μg/ml compound) [%]	IC50 (prostaglandin E2) [µM]	TNF-α (TNF-α; 0.03 μg/ml compound) [pg/mL]	TNF-α (TNF-α; 0.3 μg/ml compound) [pg/mL]	TNF-α (TNF-α; 3 μg/ml compound) [pg/mL]	inhibition at 0.03 µg/mL (TNF-α; 0.03 μg/ml compound) [%]	inhibition at 0.3 µg/mL (TNF-α; 0.3 μg/ml compound) [%]	inhibition at 3 µg/mL (TNF-α; 3 μg/ml compound) [%]	also measured
C=C1C(=O)[C@@]23C(C[C@H](O)[C@@H]1[C@H]2O)[C@@]1(C)C(C[C@H]3O)C(C)(C)CC[C@@H]1O (stereo partly shown) [Exisanin A, exisanin A]	32.5 ± 3.5	22.2 ± 2.3	6.7 ± 0.8	37	59.3	92.5	0.35	13.7 ± 0.3	10.7 ± 1.3	5.7 ± 0.7	-16.1	11.7	57.7	5.37	1243.0 ± 195.6	936.1 ± 0.00	103.2 ± 12.8	25.8	44.4	94.8	IC50 (TNF-α): 0.61 µM; inhibition at 0.03 µg/mL (NF-κB): -2.6%; inhibition at 0.3 µg/mL (NF-κB): 19.4%; inhibition at 3 µg/mL (NF-κB): 93.7%; IC50 (NF-κB): 1.66 µM; Inhibition rate (%) of arthritis (adjuvant arthritis model; 3 mg/kg/day oral): 33 ± 14%; Inhibition rate (%) of arthritis (adjuvant arthritis model; 10 mg/kg/day oral): 52 ± 12%; Inhibition rate (%) of arthritis (adjuvant arthritis model; 20 mg/kg/day oral): 64 ± 13%
C=C1C(=O)[C@@]23C4CC5C(C)(C)CC[C@H](O)[C@@]5(C(OC)O4)C2CC[C@@H]1[C@H]3O (stereo partly shown) [Kamebacetal A, kamebacetal A]	38.5 ± 4.8	19.9 ± 3.7	3.3 ± 0.7	23.9	64.2	100	0.584	13.2 ± 0.8	9.8 ± 1.4	2.7 ± 0.4	-11.3	19.6	85.6	2.8	1495.0 ± 239.7	691.4 ± 152.7	38.9 ± 1.0	10.5	59.2	98.7	NO production compared with negative control (no LPS) (nitric oxide (NO); 3 μg/ml): nearly the same as that of the negative control; IC50 (nitric oxide (NO)): 0.58 µM; IC50 (TNF-α): 0.6 µM; SEAP activity compared with negative control (no LPS) (NF-κB; 3 μg/ml): to the extent of negative control; inhibition at 0.03 µg/mL (NF-κB): 1.3%; inhibition at 0.3 µg/mL (NF-κB): 62.2%; inhibition at 3 µg/mL (NF-κB): 110%; IC50 (NF-κB): 2.45 µM; Inhibition rate (%) of arthritis (adjuvant arthritis model; 3 mg/kg/day oral): 33 ± 18%; Inhibition rate (%) of arthritis (adjuvant arthritis model; 10 mg/kg/day oral): 55 ± 10%; Inhibition rate (%) of arthritis (adjuvant arthritis model; 20 mg/kg/day oral): 69 ± 14%
C=C1C(=O)[C@@]23[C@H](O)C[C@@H]4C(C)(C)CC[C@H](O)[C@@]4(C)[C@@H]2CC[C@@H]1[C@H]3O [Kamebanin, kamebanin]	23.4 ± 1.3	4.6 ± 0.6	3.6 ± 0.3	56.5	97.2	99.3	0.06	14.4 ± 2.2	4.0 ± 0.3	0.7 ± 0.1	-22.5	73.9	104	0.88	1835.0 ± 158.8	805.6 ± 195.4	19.8 ± 0.7	-10	52.3	99.8	Prostaglandin production compared with negative control (no LPS) (prostaglandin E2; 3 μg/ml): nearly the same as that of the negative control; IC50 (TNF-α): 1 µM; inhibition at 0.03 µg/mL (NF-κB): 0.6%; inhibition at 0.3 µg/mL (NF-κB): 48.5%; inhibition at 3 µg/mL (NF-κB): 99.7%; IC50 (NF-κB): 0.72 µM; Inhibition rate (%) of arthritis (adjuvant arthritis model; 3 mg/kg/day oral): 30 ± 15%; Inhibition rate (%) of arthritis (adjuvant arthritis model; 10 mg/kg/day oral): 50 ± 12%; Inhibition rate (%) of arthritis (adjuvant arthritis model; 20 mg/kg/day oral): 68 ± 14%
